From patent EP1652839A2, “Drug efflux pump inhibitor” (priority 1999, dated 2001)

Test system: Pseudomonas aeruginosa PAM 1723 strain highly expressing the drug efflux pump
Test: Effect of combinational use with an antimicrobial agent on multidrug resistant Pseudomonas aeruginosa (broth culture, transmittance and turbidity readout)
Type: cell-based
Details: minimum concentration of compound required to enhance antibacterial activity, MHB, 1 × 10^6 CFU/ml; for Combination with AZT: azthreonam (AZT) at 1/8 or less of the minimum inhibitory concentration, combinational use for 18 hours; for Combination with LVFX: levofloxacin (LVFX) at 1/8 or less of the minimum inhibitory concentration, combinational use for 7.5 hours
Excerpt: Test Example 1: Effect of combinational use with an antimicrobial agent on multidrug resistant Pseudomonas aeruginosa
As multidrug resistant Pseudomonas aeruginosa, Pseudomonas aeruginosa PAM 1723 strain highly expressing the drug efflux pump was used. As antimicrobial drugs for the combinational uses, levofloxacin (LVFX) as a quinolone antibacterial agent and azthreonam (AZT) as a monobactam antibiotic were used.
Each of the compounds shown in Table 1 with Example No., which falls within the compounds of the present invention, was subjected to the measurement of its minimum concentration (µg/ml) that was required to enhance the antibacterial activity of the antibacterial agent when the test compound was used in combination with the antibacterial drug applied at a concentration of 1/4, or 1/8 or less of the minimum inhibitory concentration against the PAM 1723 strain. […] As for levofloxacin, effects were indicated as combinational uses for 7.5 hours, and as for azthreonam, effects as combinational uses for 18 hours was indicated. The Müller-Hinton broth (MHB, Difco) was used as a medium, and the inoculated amount of the bacteria was 1 × 10^6 CFU/ml. Effects were determined by optically measuring the transmittance of the bacterial culture with time, and visually observing the turbidity of the medium.

Compound	Combination with AZT	Combination with LVFX
O=C(Cc1ccccc1C(=O)O)Nc1cccc(/C=C/c2nc(-c3ccccc3)cs2)c1 [Example 1, 2-(2-Oxo-2-3-[(E)-2-(4-phenyl-1,3-thiazol-2-yl)-1-ethenyl]anilinoethyl)-benzoic acid]	1.25 µg/mL	<=0.63 µg/ml
CC(C)c1cccc(COc2cccc(NC(=O)Cc3ccccc3C(=O)O)c2)n1 [Example 9, 2-(2-3-[(6-Isopropyl-2-pyridyl)methoxy]anilino-2-oxoethyl)benzoic acid]	2.5 µg/mL	0.63 µg/mL
COC(=O)c1cc(NC(=O)Cc2ccccc2C(=O)O)cc(OCc2nc(C(C)C)cs2)c1 [Example 16, 2-(3-((4-Isopropyl-1,3-thiazol-2-yl)methoxy)-5-(methoxycarbonyl)anilino)-2-oxoethylbenzoic acid]	160 µg/mL	160 µg/mL
O=C(Cc1ccccc1C(=O)O)Nc1cccc(/C=C/c2nc3cccnc3s2)c1 [Example 6, 2-(2-Oxo-2-{3-[(E)-2-(pyrido[3,2-d][1,3]thiazol-2-yl)-1-ethenyl]anilino}ethyl)benzoic acid]	5 µg/mL	20 µg/mL
O=C(Cc1ccccc1C(=O)O)Nc1cccc(/C=C/c2nc3ccccc3o2)c1 [Example 7, 2-(2-3-[(E)-2-(1,3-Benzoxazol-2-yl)-1-ethenyl]anilino-2-oxoethyl)benzoic acid]	5 µg/mL	2.5 µg/mL
CC(C)c1nc(/C=C/c2cccc(NC(=O)Cc3ccccc3C(=O)O)c2)sc1Cl [Example 3, 2-(2-3-[(E)-2-(4-Isopropyl-5-chloro-1,3-thiazol-2-yl)-1-ethenyl]anilino-2-oxoethyl)benzoic acid]		<=2.5 µg/ml
CC(C)c1csc(/C=C/c2cncc(NC(=O)[C@H]3OC(C)(C)O[C@@H]3C(=O)O)c2)n1 [Example 15, (4S,5S)-5-[(5-[(E)-2-(4-Isopropyl-1,3-thiazol-2-yl)-1-ethenyl]-3-pyridyl-amino)carbonyl]-2,2-dimethyl-1,3-dioxolane-4-carboxylic acid]	40 µg/mL	20 µg/mL
O=C(Cc1ccccc1C(=O)O)Nc1cccc(CCc2nc(-c3ccccc3)cs2)c1 [Example 10, 2-(2-Oxo-2-{3-[2-(4-phenyl-1,3-thiazol-2-yl)ethyl]anilino}ethyl)benzoic acid]	2.5 µg/mL	20 µg/mL
CC(C)c1nsc(COc2cc(NC(=O)Cc3ccccc3C(=O)O)c(F)cc2F)n1 [Example 13, 2-(2-2,4-Difluoro-5-[(3-isopropyl-1,2,4-thiadiazol-5-yl)methoxy]anilino-2-oxoethyl)benzoic acid]	1.25 µg/mL	<=0.63 µg/ml
O=C(Cc1ccccc1C(=O)O)Nc1cccc(/C=C/c2ccc(-c3ccccc3)o2)c1 [Example 4, 2-[2-Oxo-2-{3-[(E)-(5-phenyl-2-furyl)-1-ethenyl]anilino}ethyl]benzoic acid]	2.5 µg/mL	10 µg/mL
O=C(Cc1ccccc1C(=O)O)Nc1cccc(/C=C/c2nc(-c3ccncc3)cs2)c1 [Example 8, 2-[2-Oxo-2-(3-(E)-2-[4-(4-pyridyl)-1,3-thiazol-2-yl]-1-ethylanilino)ethyl]-benzoic acid]	2.5 µg/mL	0.63 µg/mL
CC(C)c1csc(COc2cc(N)cc(NC(=O)Cc3ccccc3C(=O)O)c2)n1 [Example 14, 2-(3-Amino-5-((4-isopropyl-1,3-thiazol-2-yl)methoxy)anilino-2-oxoethyl)-benzoic acid]	10 µg/mL	10 µg/mL
O=C(Cc1ccccc1C(=O)O)Nc1cccc(OCc2ccc3ccccc3n2)c1 [Example 2, 2-{2-Oxo-2-[3-(2-quinolylmethoxy)anilino]ethyl}benzoic acid]	5 µg/mL	20 µg/mL
CC(C)c1csc(/C=C/c2cncc(NC(=O)Cc3ccccc3C(=O)O)c2)n1 [Example 17, 2-[2-(5-[(E)-2-(4-Isopropyl-1,3-thiazol-2-yl)-1-ethenyl]-3-pyridylamino)-2-oxoethyl]benzoic acid]	1.25 µg/mL	0.63 µg/mL
O=C(Cc1ccccc1C(=O)O)Nc1cccc(C(=O)Nc2nc(-c3ccccc3)cs2)c1 [Example 12, 2-(2-Oxo-2-(3-((4-phenyl-1,3-thiazol-2-yl)amino)carbonylanilino)ethyl)-benzoic acid]	20 µg/mL	>40 µg/mL
O=C(Cc1ccccc1C(=O)O)Nc1cccc(C2CC2c2nc(-c3ccccc3)cs2)c1 (centres unmarked) [Example 11, 2-(2-Oxo-2-{3-[2-(4-phenyl-1,3-thiazol-2-yl)cyclopropyl]anilino}ethyl)benzoic acid]	40 µg/mL	>40 µg/mL
CC(C)c1nc(/C=C/c2cccc(NC(=O)Cc3ccccc3C(=O)O)c2)sc1N [Example 5, 2-{2-[3-((E)-2-{5-Amino-4-isopropyl-1,3-thiazol-2-yl}-1-ethenyl)amino]-2-oxoethyl}benzoic acid]	20 µg/mL	10 µg/mL
CC(C)c1csc(/C=C/c2cccc(NC(=O)Cc3ccccc3C(=O)O)n2)n1 [Example 18, 2-[2-(6-[(E)-2-(4-Isopropyl-1,3-thiazol-2-yl)-1-ethenyl]-2-pyridylamino)-2-oxoethyl]benzoic acid]	20 µg/mL	10 µg/mL
